According to paper PMC12930396, “Positive modulators of N-methyl-D-aspartate receptor: structure–activity relationship study on steroidal C-17 and C-20 oxime ethers” (RSC Advances, 2026):

Columns and labels:
GluN1/GluN2B receptors = biological target: T1, GluN1/GluN2B receptors (Rattus norvegicus, UniProt P35439+Q00960); assay: Patch-clamp: modulation of glutamate-induced currents of recombinant GluN1/GluN2B receptors expressed in HEK293 cells; assay type: cell-based
T1 construct: expressed in transfected cells; host or cells: HEK293 cells (ATCC No. CRL-1573)
T1 sequence (Q00960 27-1482, other chains not shown): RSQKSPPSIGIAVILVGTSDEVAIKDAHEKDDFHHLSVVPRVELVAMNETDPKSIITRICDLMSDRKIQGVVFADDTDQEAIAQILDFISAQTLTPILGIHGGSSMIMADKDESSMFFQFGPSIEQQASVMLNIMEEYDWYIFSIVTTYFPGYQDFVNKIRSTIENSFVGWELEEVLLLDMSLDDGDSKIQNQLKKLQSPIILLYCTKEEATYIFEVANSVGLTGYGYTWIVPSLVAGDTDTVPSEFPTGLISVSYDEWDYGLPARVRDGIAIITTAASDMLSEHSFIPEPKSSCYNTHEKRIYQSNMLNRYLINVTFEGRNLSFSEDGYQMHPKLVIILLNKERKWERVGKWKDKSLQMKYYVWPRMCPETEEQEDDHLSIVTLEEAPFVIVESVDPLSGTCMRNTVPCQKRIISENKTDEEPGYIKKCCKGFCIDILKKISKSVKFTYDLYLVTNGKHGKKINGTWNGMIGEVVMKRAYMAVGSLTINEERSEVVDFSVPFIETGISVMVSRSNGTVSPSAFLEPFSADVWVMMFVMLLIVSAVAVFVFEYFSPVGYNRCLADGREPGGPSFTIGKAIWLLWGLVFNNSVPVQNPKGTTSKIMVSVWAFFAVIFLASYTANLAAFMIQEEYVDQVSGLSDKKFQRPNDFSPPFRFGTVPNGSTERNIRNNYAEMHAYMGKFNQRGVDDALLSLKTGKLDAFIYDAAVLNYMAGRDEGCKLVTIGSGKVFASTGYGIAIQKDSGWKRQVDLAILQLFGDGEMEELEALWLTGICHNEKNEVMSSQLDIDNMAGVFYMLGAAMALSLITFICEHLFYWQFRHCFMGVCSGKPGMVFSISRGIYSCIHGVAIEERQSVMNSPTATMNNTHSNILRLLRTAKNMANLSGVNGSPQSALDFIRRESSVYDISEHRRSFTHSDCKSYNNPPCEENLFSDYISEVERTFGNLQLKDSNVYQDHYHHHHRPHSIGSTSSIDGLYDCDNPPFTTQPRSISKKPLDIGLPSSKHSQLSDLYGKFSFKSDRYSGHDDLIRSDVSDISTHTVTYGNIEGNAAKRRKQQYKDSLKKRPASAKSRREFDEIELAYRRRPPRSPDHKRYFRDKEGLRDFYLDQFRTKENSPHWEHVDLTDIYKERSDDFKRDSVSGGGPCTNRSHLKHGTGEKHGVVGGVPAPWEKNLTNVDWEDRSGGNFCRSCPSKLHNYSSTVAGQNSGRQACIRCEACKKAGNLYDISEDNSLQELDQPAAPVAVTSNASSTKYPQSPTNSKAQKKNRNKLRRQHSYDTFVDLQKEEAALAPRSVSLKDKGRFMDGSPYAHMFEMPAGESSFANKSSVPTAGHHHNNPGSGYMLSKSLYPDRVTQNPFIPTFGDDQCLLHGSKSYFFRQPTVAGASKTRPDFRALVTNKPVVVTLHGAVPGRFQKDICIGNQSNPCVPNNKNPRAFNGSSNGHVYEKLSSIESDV
Experimental: To investigate the effect of compounds 11–23 on the activity of NMDARs, electrophysiological measurements were performed on HEK293 cells that were co-transfected with cDNAs containing genes encoding for the rat GluN1-1a and GluN2B subunits. The degree of modulation (E; potentiation/inhibition) for the newly synthesized compounds was determined using the following formula: [drawing 1] where Ie is the value of the current amplitude during glutamate and compound coapplication, and Ia is the current amplitude value for glutamate application. […] The results are presented as mean ± standard error of the mean (SEM), with n equal to the number of independent measurements. One-way analysis of variance (ANOVA) was used for multiple comparisons (unless otherwise stated, a value of P ≤ 0.05 was used for the determination of significance).
We have evaluated the relationship between oxime derivatives 11–23 and their modulatory effect on recombinant GluN1/GluN2B receptors. Due to the […] effect of neurosteroid-based PAMs at NMDARs[20,44]
HEK293 cells (American Type Culture Collection, ATCC No. CRL-1573, Rockville, MD, USA) were cultured in Opti-MEM I (Invitrogen, Carlsbad, CA, USA) supplemented with 5% fetal bovine serum (FBS; PAN Biotech, Aidenbach, Germany) at 37 °C in 5% CO2. 24 h before transfection, HEK293 cells were plated in 24-well plates at a density of 2 × 10^5 cells per well. The next day, the cells were transfected with cDNA encoding rat GluN1-1a (GluN1; GenBank accession number U08261)[56] and GluN2B (GenBank accession number M91562)[57] subunits (in the pCI-neo expression vector), along with green fluorescent protein (GFP; in the pQBI 25 vector, Takara, Tokyo, Japan). Briefly, equal amounts (200 ng) of cDNAs encoding GluN1-1a, GluN2B, and GFP were mixed with 0.6 µl of Matra-A reagent (IBA, Gottingen, Germany) in 50 µL of Opti-MEM I and added to confluent HEK293 cells cultured in 24-well plates. After trypsinization, the cells were resuspended in Opti-MEM I containing 1% FBS, supplemented with 20 mM MgCl2, 1 mM D,L-2-amino-5-phosphonovaleric acid, 3 mM kynurenic acid, and 1 µM ketamine, and plated on 30 mm glass coverslips coated with collagen and poly-L-lysine. Transfected cells were identified by GFP epifluorescence. Electrophysiology experiments were performed 24–48 h after transfection.
Whole-cell current recordings, voltage-clamped at a holding potential of −60 mV, were performed at room temperature using a patch-clamp amplifier (Axopatch 200B; Molecular Devices, Sunnyvale, CA, USA) after capacitance and series resistance (<10 MΩ) compensation (80–90%). NMDAR current responses were low-pass filtered at 2 kHz, digitally sampled at 5 kHz, and analysed using pClamp software (version 10.6; Molecular Devices). Patch pipettes (3–5 MΩ), pulled from borosilicate glass, were filled with an intracellular solution (ICS) containing (in mM): 15 CsCl, 10 BAPTA, 3 MgCl2, 1 CaCl2, 120 gluconic acid, 10 HEPES, and 2 ATP-Mg salt (pH adjusted to 7.2 with CsOH). The extracellular solution (ECS) contained (in mM): 160 NaCl, 2.5 KCl, 0.2 EDTA, 10 glucose, 10 HEPES, and 0.7 CaCl2 (pH adjusted to 7.3 with NaOH). NMDAR responses were induced by 1 µM glutamate and 30 µM glycine. 1% DMSO was present in all control and testing solutions. Solution applications were performed using a microprocessor-controlled multibarrel fast-perfusion system with a solution exchange rate around the cells of ∼10 ms.[58]

in vitro = conditions: pH 7.4
Experimental: The reactions were terminated by the addition of four volumes of ice-cold methanol, mixed vigorously, and left at −20 °C for 1h. After that, the samples were centrifuged and the supernatants were analysed by means of ECHO-MS® System (Sciex, Framingham, MA, USA). Zero time points were prepared by adding ice-cold methanol to the mixture of the compound with cofactors before the addition of microsomes. […] Intrinsic clearance (CLint) was calculated using the following formula: [drawing 4] where V is the incubation volume per milligram of microsomal protein (µL mg^−1) and t1/2 is the microsomal half-life.

[1] = Thermodynamic solubility in PBS pH 7.4; assay type: physicochemical; conditions: PBS pH 7.4, 20 °C, 24 h
Experimental: The reference samples were prepared as follows: a weight corresponding to 2.5 µmol was dissolved in 250 µL of DMSO, resulting in a concentration of 10 mM stock solution. Each calibration level standard was prepared by diluting the stock solution in a mixture of PBS and acetonitrile (50 : 50 v/v). The samples for testing were prepared as follows: the volume of 1000 µL of PBS was added to the testing tube containing a weight of sample corresponding to 0.4 mM. The mixture was shaken at 1000 rpm at 20 °C for 24 h. The mixture was then filtered using a syringe polypropylene 0.45 µm filter. Samples and calibration standards are prepared using an automated system of a robotic arm (PAL-RTC, Switzerland). Then, the sample was analysed on chromatographic system (Vanquish UHPLC, Thermo Fisher Scientific, Germany) connected to the diode array detector and consequently to the charged aerosol detector (both Vanquish, Thermo Fisher Scientific, Germany), Thermo Scientific Accucore C8 (100 × 3 mm; 2.6 µm) column, using gradient elution with acetonitrile/methanol/5 mM formate buffer (pH = 3.00); flow: 1.0 cm^3 min^−1; column temperature: 40 °C; CAD temperature: 30 °C; sample volume: 5 mm^3.

For CCON=C(C)C1CCC2C3CC=C4CC(OC(=O)CCCC(=O)O)CCC4(C)C3CCC12C (stereo not drawn) [Compound 12, 20-Oxo-pregn-5-en-3β-yl hemiglutarate O-ethyloxime], the “Efficacy relative to PES” value (GluN1/GluN2B receptors; Emax compared with PES) was “over 6 fold”, the “h ± SEM (apparent Hill coefficient)” value (GluN1/GluN2B receptors; concentration-response fit, mean ± SEM) was 1.7 ± 0.3 and the EC50 (GluN1/GluN2B receptors; half-maximal potentiation of currents evoked by 1 µM glutamate, HEK293, mean ± SEM) was 8.7 ± 1.1 µM. The Emax (GluN1/GluN2B receptors; maximal potentiation of currents evoked by 1 µM glutamate and 30 µM glycine, HEK293, mean ± SEM) was 673 ± 121%, the “Metabolic stability in rat liver microsomes” value (in vitro; 1 h, 10 µM) was “no detectable metabolism after 60 min” and the half-life at 10 µM (in vitro; rat, microsomes) was > 1 h. For the same molecule, the “Solubility PBS, pH 7.4 (thermodynamic)” value [1] was 361 ± 41 µM and the solubility thermodynamic at 24 h ([1]; PBS, 20 °C, pH 7.4, aqueous buffer, thermodynamic from solid, read-out: Solubility PBS, pH 7.4 (thermodynamic)) was > 350 µM.
